Here are results for 2 compounds from US8940685B2, “Method for preparing active peptides from corn germ proteins” (China National Research Institute of Food and Fermentation …, priority 2011, dated 2015).

In data set [1] the test system is spontaneous hypertension rats. The data set can be described thus: antihypertensive effect on spontaneous hypertension rat, 8 weeks of continuous gavage. Particulars: for blood pressure: Captopril group 10 mg/kg.bw gavage, n = 8. It is filed as in vivo. How it is done: The blank control group was gavaged with the same volume of distilled water, and the positive control group was gavaged with 10 mg/kg.bw captopril.

The next data set deals with ACE (Homo sapiens, UniProt P12821). The following applies: read-out: in vitro antihypertensive activity IC50; cited from earlier work.
Another data set has as its system SHR. The following applies: oral gavage 50 mg/kg, after two hours; cited from earlier work.
[2] abbreviates: after 8 weeks of continuous gavage, each group, P>0.05.

ACE, sequence (P12821 30-1306, species assumed): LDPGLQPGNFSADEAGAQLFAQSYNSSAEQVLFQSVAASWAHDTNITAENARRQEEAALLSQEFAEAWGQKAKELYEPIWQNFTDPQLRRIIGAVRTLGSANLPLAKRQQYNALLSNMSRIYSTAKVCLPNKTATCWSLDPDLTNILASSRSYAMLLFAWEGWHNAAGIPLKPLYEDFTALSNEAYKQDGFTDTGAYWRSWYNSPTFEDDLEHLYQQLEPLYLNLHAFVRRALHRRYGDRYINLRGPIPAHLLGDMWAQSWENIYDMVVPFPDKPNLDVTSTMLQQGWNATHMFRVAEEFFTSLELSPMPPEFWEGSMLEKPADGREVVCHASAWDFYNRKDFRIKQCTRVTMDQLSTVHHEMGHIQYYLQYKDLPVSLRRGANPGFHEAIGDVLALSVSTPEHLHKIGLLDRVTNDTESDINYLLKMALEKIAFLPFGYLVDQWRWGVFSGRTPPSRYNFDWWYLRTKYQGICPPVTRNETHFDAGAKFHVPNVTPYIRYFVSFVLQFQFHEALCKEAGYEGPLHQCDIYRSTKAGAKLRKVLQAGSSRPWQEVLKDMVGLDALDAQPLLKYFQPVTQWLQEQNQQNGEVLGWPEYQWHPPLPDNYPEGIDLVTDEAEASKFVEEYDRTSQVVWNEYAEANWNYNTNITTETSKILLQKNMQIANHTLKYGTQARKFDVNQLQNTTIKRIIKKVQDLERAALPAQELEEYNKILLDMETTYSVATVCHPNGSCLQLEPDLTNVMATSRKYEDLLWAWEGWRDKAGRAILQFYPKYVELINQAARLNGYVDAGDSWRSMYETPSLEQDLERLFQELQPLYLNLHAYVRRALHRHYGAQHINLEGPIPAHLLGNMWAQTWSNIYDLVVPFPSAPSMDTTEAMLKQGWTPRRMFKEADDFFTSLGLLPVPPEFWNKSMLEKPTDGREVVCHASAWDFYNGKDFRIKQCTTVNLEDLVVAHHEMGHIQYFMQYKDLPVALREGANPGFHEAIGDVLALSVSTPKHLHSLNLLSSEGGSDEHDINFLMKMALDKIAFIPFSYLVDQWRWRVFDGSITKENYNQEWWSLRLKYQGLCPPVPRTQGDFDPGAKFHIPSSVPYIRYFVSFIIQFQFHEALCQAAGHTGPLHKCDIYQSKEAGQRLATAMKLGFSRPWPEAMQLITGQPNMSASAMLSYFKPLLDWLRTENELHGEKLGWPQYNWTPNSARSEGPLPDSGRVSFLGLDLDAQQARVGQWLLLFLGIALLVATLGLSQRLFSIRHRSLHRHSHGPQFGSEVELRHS

With `C[C@H](CS)C(=O)N1CCC[C@H]1C(=O)O` [Captopril, captopril], the blood pressure in data set [1] (0w) was 193 ± 6 mmHg; in data set [1] (1w), 184 ± 16 mmHg; in data set [1] (2w) it was 177 ± 9 mmHg; in data set [1] (3w) it was 174 ± 12 mmHg; in data set [1] (4w), 170 ± 14 mmHg; in data set [1] (5w), 168 ± 12 mmHg. For the same compound, the blood pressure came out at 164 ± 17 mmHg in data set [1] (6w), 162 ± 15 mmHg in data set [1] (7w) and 161 ± 16 mmHg in data set [1] (8w). For the same compound, the body weight entry in data set [1] (setting [2]) is on record as “no significant change”. Also, the heart rate result in data set [1] (setting [2]) is recorded as “no significant change”. Further, in data set [1] (setting [2]), the heart/body weight ratio entry is on record as “no significant change”. In addition, the “Serum aldosterone concentration vs control group” value in data set [1] (captopril group 10 mg/kg.bw, n=8, P<0.01) is given as “significantly lower”.
With alanine-Tyrosine [AY], on ACE, the IC50 was 14.2 µM. Moreover, the “drop of blood pressure” value in the data set with SHR is 9.5 mmHg.

A word on the IC50: it is the concentration at which inhibition is half-maximal.
